# Laboratory results as given in US5932545A, “Antiangiogenic drug to treat cancer, arthritis and retinopathy” (Abbott Laboratories, priority 1998, dated 1999).
# Square brackets hold non-standard residues; d marks the D form. Ends that are not written are not given here. Peptide text beside a SMILES is read from it.
# Key:
# [1] = system: bovine capillary (adrenal) endothelial cells (BCE); test: endothelial cell migration assay (modified Boyden chamber); format: cell-based; conditions: 4 hours at 37° C., read-out: IC50, effect on endothelial cell migration
# Description: The effect of the peptides of the invention on endothelial cell migration was determined in vitro using the endothelial cell migration assay. This assay was performed essentially as described by Polverini, P. J. et al., Methods Enzymol, 198: 440-450 (1991). Briefly, bovine capillary (adrenal) endothelial cells (BCE, supplied by Judah Folkman, Harvard University Medical School) were starved overnight in DMEM containing 0.1% bovine serum albumin (BSA). Cells were then harvested with trypsin and resuspended in DMEM with 0.1% BSA at a concentration of 1.5×10^6cells/mL. Cells were added to the bottom of a 48-well modified Boyden chamber (Nucleopore Corporation, Cabin John, Md.). The chamber was assembled and inverted, and cells were allowed to attach for 2 hours at 37° C. to polycarbonate chemotaxis membranes (5 μm pore size) that had been soaked in 0.1 % gelatin overnight and dried. The chamber was then reinverted and test compounds were added to the wells of the upper chamber (to a total volume of 50 μL); the apparatus was then incubated for 4 hours at 37° C. Membranes were recovered, fixed and stained (DiffQuick, Fisher Scientific, Pittsburgh, Pa.) and the number of cells that had migrated to the upper chamber per 10 high power fields were counted. Background migration to DMEM+0.1% BSA was subtracted and the data reported as the number of cells migrated per 10 high power fields (400×) or when results from multiple experiments were combined, as the percent of maximal migration compared to a simultaneous positive control.
# [2] = system: rat corneal neovascularization; test: rat corneal neovascularization assay (hydron pellets, peptide alone or with bFGF); format: in vivo; conditions: 7 days
# Description: Inhibition of angiogenesis in vivo was measured using a rat corneal neovascularization assay. Accordingly, 6% hydron pellets containing peptide alone or in combination with 0.15 μM bFGF were implanted in rat corneas 1-1.5 mm from the limbus. at 7 days, the rats were sacrificed, perfused with colloidal carbon to visualize vessels and the corneas were extracted. Vigorous vessel ingrowth was scored as a positive angiogenic response. Induction control indicates response to 0.15 μM bFGF alone.
# [3] = system: cultured endothelial cells; conditions: background, Tolsma et al. 1993; cited from earlier work
# [4] = system: rat cornea neovascularization; conditions: background, Tolsma et al. 1993; cited from earlier work
compound,measurement,setting,value
CC[C@H](C)[C@H](NC(=O)[C@H](CCCNC(=N)N)NC(=O)[C@@H](NC(=O)[C@@H](NC(=O)[C@@H](NC(=O)CNC(=O)[C@H](CC(=O)O)NC(=O)CNC(=O)[C@H](C)NC(=O)[C@@H](NC(=O)[C@@H](NC(=O)[C@H](CO)NC(=O)[C@H](C)NC(=O)[C@@H](CO)NC(=O)[C@H](CO)NC(=O)[C@H](Cc1c[nH]c2ccccc12)NC(=O)[C@@H]1CCCN1C(=O)[C@@H](N)CO)C(C)C)[C@@H](C)O)C(C)C)[C@@H](C)CC)[C@@H](C)O)C(=O)N[C@@H](CCCNC(=N)N)C(=O)O [Ser-Pro-Trp-Ser-D-Ser-Ala-Ser-Val-Thr-Ala-Gly-Asp-Gly-Val-Ile-Thr-Arg-Ile-Arg] (H-SPWS[dS]ASVTAGDGVITRIR-OH),IC50,[1],0.9 nM
CC[C@@H](C)[C@@H](NC(=O)[C@@H](NC(=O)CNC(=O)[C@H](CC(=O)O)NC(=O)CNC(=O)[C@H](C)NC(=O)[C@@H](NC(=O)[C@@H](NC(=O)[C@H](CO)NC(=O)[C@H](C)NC(=O)[C@@H](CO)NC(=O)[C@H](CO)NC(=O)[C@H](Cc1c[nH]c2ccccc12)NC(=O)[C@@H]1CCCN1C(=O)[C@@H](N)CO)C(C)C)[C@@H](C)O)C(C)C)C(=O)N[C@H](C(=O)N[C@@H](CCCNC(=N)N)C(=O)N[C@H](C(=O)N[C@@H](CCCNC(=N)N)C(=O)O)[C@@H](C)CC)[C@@H](C)O [Ser-Pro-Trp-Ser-D-Ser-Ala-Ser-Val-Thr-Ala-Gly-Asp-Gly-Val-D-Ile-Thr-Arg-Ile-Arg] (H-SPWS[dS]ASVTAGDGV[dI]TRIR-OH),IC50,[1],0.9 nM
"CCNC(=O)[C@H](CCCNC(=N)N)NC(=O)[C@@H](NC(=O)[C@H](CCCNC(=N)N)NC(=O)[C@@H](NC(=O)[C@H](NC(=O)[C@@H](NC(=O)CNC(C)=O)C(C)C)[C@H](C)CC)[C@@H](C)O)[C@@H](C)CC [Ac-Gly-Val-D-Ile-Thr-Arg-Ile-Arg-NHEt, Ac-Gly-Val-D-Ile-Thr-Arg-Ile-Arg-NHCH2 CH3] (Ac-GV[dI]TRIR-NHEt)",IC50,[1],0.67 nM
CC[C@@H](C)[C@@H](NC(=O)[C@@H](NC(=O)CNC(=O)[C@H](CC(=O)O)NC(=O)CNC(=O)[C@H](C)NC(=O)[C@@H](NC(=O)[C@@H](NC(=O)[C@H](CO)NC(=O)[C@H](C)NC(=O)[C@H](CO)NC(=O)[C@@H](CO)NC(=O)[C@H](Cc1c[nH]c2ccccc12)NC(=O)[C@@H]1CCCN1C(=O)[C@@H](N)CO)C(C)C)[C@@H](C)O)C(C)C)C(=O)N[C@H](C(=O)N[C@@H](CCCNC(=N)N)C(=O)N[C@H](C(=O)N[C@@H](CCCNC(=N)N)C(=O)O)[C@@H](C)CC)[C@@H](C)O [Ser-Pro-Trp-D-Ser-Ser-Ala-Ser-Val-Thr-Ala-Gly-Asp-Gly-Val-D-Ile-Thr-Arg-Ile-Arg] (H-SPW[dS]SASVTAGDGV[dI]TRIR-OH),"Positive Corneas/Total Implanted, Tested + bFGF","[2]; peptide + 0.15 μM bFGF, peptide concentration not given",0/3
same,"Positive Corneas/Total Implanted, Tested Alone","[2]; peptide alone in hydron pellet, concentration not given",0/3
CC[C@@H](C)[C@@H](NC(=O)[C@@H](NC(=O)CNC(C)=O)C(C)C)C(=O)N[C@H](C(=O)N[C@@H](CCCNC(=N)N)C(=O)N[C@H](C(=O)N[C@@H](CCCNC(=N)N)C(N)=O)[C@@H](C)CC)[C@@H](C)O [Ac-Gly-Val-D-Ile-Thr-Arg-Ile-Arg-NH2] (Ac-GV[dI]TRIR-NH2),IC50,[1],7 nM
same,"Positive Corneas/Total Implanted, Tested + bFGF",[2]; 0.1 μM peptide + 0.15 μM bFGF,1/3
same,"Positive Corneas/Total Implanted, Tested Alone",[2]; 0.1 μM peptide alone,0/3
same,"Positive Corneas/Total Implanted, Tested + bFGF",[2]; 1 μM peptide + 0.15 μM bFGF,0/2
same,"Positive Corneas/Total Implanted, Tested Alone",[2]; 1 μM peptide alone,0/1
same,"Positive Corneas/Total Implanted, Tested + bFGF",[2]; 20 μM peptide + 0.15 μM bFGF,0/2
same,"Positive Corneas/Total Implanted, Tested Alone",[2]; 20 μM peptide alone,0/4
CCNC(=O)[C@H](CCCNC(=N)N)NC(=O)[C@@H](NC(=O)[C@H](CCCNC(=N)N)NC(=O)[C@@H](NC(=O)[C@H](NC(=O)[C@@H](NC(=O)CNC(=O)[C@H](Cc1ccc(O)cc1)NC(C)=O)C(C)C)[C@H](C)CC)[C@@H](C)O)[C@@H](C)CC [Ac-Tyr-Gly-Val-D-Ile-Thr-Arg-Ile-Arg-NHCH2 CH3] (Ac-YGV[dI]TRIR-NHEt),IC50,[1],50 nM
CC[C@@H](C)[C@@H](NC(=O)[C@@H](NC(=O)CNC(=O)[C@H](CC(=O)O)NC(=O)CNC(=O)[C@H](C)NC(=O)[C@@H](NC(=O)[C@@H](NC(=O)[C@H](CO)NC(=O)[C@H](C)NC(=O)[C@H](CO)NC(=O)[C@H](CO)NC(=O)[C@H](Cc1c[nH]c2ccccc12)NC(=O)[C@@H]1CCCN1C(=O)[C@@H](N)CO)C(C)C)[C@@H](C)O)C(C)C)C(=O)N[C@H](C(=O)N[C@@H](CCCNC(=N)N)C(=O)N[C@H](C(=O)N[C@@H](CCCNC(=N)N)C(=O)O)[C@@H](C)CC)[C@@H](C)O [Ser-Pro-Trp-Ser-Ser-Ala-Ser-Val-Thr-Ala-Gly-Asp-Gly-Val-D-Ile-Thr-Arg-Ile-Arg] (H-SPWSSASVTAGDGV[dI]TRIR-OH),IC50,[1],10 nM
"SPWSSASVTAGDGVITRIR [MalII, 19-mer synthetic peptide mimicking properdin-like repeat region 1 of TSP1]","ED50, inhibition of the migration of cultured endothelial cells",[3],about 1 μM
same,neovascularization in vivo in the rat cornea,[4],blocked neovascularization in vivo in the rat cornea
